Source: paper PMC11218446, “Antibacterial efficacy and membrane mechanism of action of the Serratia-derived non-ionic lipopeptide, serrawettin W2-FL10” (Microbiology Spectrum, 2024)
≈ marks a conversion by molar mass, not a printed value. Like-named read-outs stand apart in the source and are kept apart here.

Assays:
Type in all cases: cell-based, Staphylococcus aureus
S. aureus ATCC 25923 = details: for ICF / IC50 ± SE / MIC ± SE: resazurin
Text: (§1) Based on the broth microdilution assay results for W2-FL10 and melittin, the S. aureus ATCC 25923 (reference), S. aureus RN4220 (laboratory; MSSA), or methicillin-resistant S. aureus Xen 30 (clinical; MRSA) strains were selected for further antibacterial studies. Resazurin (also referred to as Alamar Blue) is a blue, non-fluorescent dye that can be reduced to resorufin (a pink, fluorescent compound) by metabolically active cells. The dye can thus be used as a quantitative indicator of cell viability ([52]). Therefore, a broth microdilution assay coupled with resazurin [prepared to a stock solution of 0.3 mg/mL in PBS; ([53])] was used to determine the influence of cations (Mg^2+ and Ca^2+), commercial LTA of S. aureus and DOPG on the potency of W2-FL10 against S. aureus ATCC 25923, S. aureus RN4220 and MRSA Xen 30 as described by Wu et al. ([54]).
(§2) For investigating the influence of cations on the antibacterial potency of W2-FL10, a clear 96-well plate was prepared with W2-FL10 and air dried as described in the “Antibacterial activity: broth microdilution assay” section. The S. aureus strains were inoculated into MHB or CA-MHB, grown to mid-log phase (OD600 of 0.5–0.6), and diluted to OD600 of 0.4. A 1:20 dilution of the test strain (final concentration of ∼10^5 CFU/mL) was prepared and 100 µL was dispensed into each well (final concentration of W2-FL10 at 1.56 to 25 µg/mL). Sterile broth (i.e., MHB or CA-MHB) and the OD-adjusted inoculum were included in the assay as a positive control, while sterile broth (i.e., MHB or CA-MHB) was included as a sterility control. The plate was incubated for 24 h at 37°C.
(§3) Similarly, the possible interaction and binding of LTA of S. aureus and DOPG (both at 1 mg/mL in 10% EtOH) with the lipopeptide W2-FL10 was investigated ([54]). Briefly, a clear 96-well plate was prepared with W2-FL10 and air dried as described in the “Antibacterial activity: broth microdilution assay” section. Thereafter, 10 µL of LTA from S. aureus or DOPG was dispensed into the respective wells. The S. aureus strains were grown to mid-log phase in MHB (OD600 of 0.5–0.6) and diluted to OD600 of 0.4. A 1:20 dilution of test strain (final concentration of ∼10^5 CFU/mL) was prepared, 100 µL was dispensed into each well (final concentration of W2-FL10 at 3.13 to 100 µg/mL), and the plate was incubated for 24 h at 37°C. Sterile broth, the OD-adjusted inoculum, and the respective LTA or DOPG were included in the assay as a positive control, while sterile broth and LTA or DOPG were included as a sterility control.
(§4) After incubation of both plates, 10 µL of resazurin (0.3 mg/mL) was added to each well and the plate was incubated at 37°C for 1 h. Fluorometric readings of the experimental plates were conducted using a Tecan Spark 10M Multimode Microplate Reader at 560 nm excitation wavelength and 590 nm emission wavelength. For all resazurin assays, the percentage inhibition was calculated as described by van Rensburg et al. ([53]). All experiments were performed in triplicate, with independent biological duplicates. […] Dose-response curves (nonlinear regression using equation 1) were processed as described by Rautenbach et al. ([17]) (also see description above), and IC50 values were deduced from the best-fit sigmoidal curves (R^2 ≥ 0.98). Statistical analyses were done by comparing W2-FL10 IC50, in the presence of Ca^2+ and Mg^2+, in the presence of DOPG, and in the presence of LTA toward the control condition each of the three S. aureus strains using one-way analysis of variance (ANOVA) with Bonferroni’s post hoc test.

MRSA Xen 30 [1] = details: for ICF / IC50 ± SE / MIC ± SE: resazurin
Text: as §1, §2, §3, §4

S. aureus RN4220 = experiment: Membrane permeability assay, propidium iodide; details: 25 µg/mL
Method: (§5) The membrane permeability capabilities of the W2-FL10 against the S. aureus strains were determined using PI ([56]). Briefly, black 96-well plates were prepared with W2-FL10 at 6.25, 12.5, and 25 µg/mL, while 4–16 µg/mL of melittin was used as a positive permeability control, and the plates were dried as described in the “Antibacterial activity: broth microdilution assay” section. The S. aureus strains were inoculated into MHB, grown to mid-log phase (OD600 of 0.5–0.6), and diluted to OD600 of 0.3. PI (stock concentration of 1 mg/mL in analytical quality H2O) was added to the cell suspension to a final concentration of 10 µg/mL and cells were incubated in the dark at room temperature for 20 min. Thereafter, 100 µL of OD-adjusted PI cells in the mid-log phase were dispensed into each well. Sterile broth and the OD-adjusted inoculum with PI were included as a non-fluorescent control, while sterile broth with PI was included as a sterility control, and melittin was included as membrane depolarization control. All the tests were performed in triplicate, with independent duplicates. Fluorometric readings of the plate were conducted in 4-min intervals over 60 min (readings began ~60 s after cells were added to the plate) using a Tecan Spark at 535 nm excitation wavelength and 617 nm emission wavelength.
(§6) The leakage kinetics or PI permeabilization kinetic was assessed using a rate parameter of ΔPI fluorescence per minute. This was done by fitting linear regression lines on the linear sections, namely 6–16 min for melittin and 6–18 min, as well as 34–50 min for W2-FL10. The rates of PI permeabilization were compared between the three S. aureus strains using a one-way ANOVA with Bonferroni’s post hoc test.

MRSA Xen 30 [2] = experiment: Membrane permeability assay, propidium iodide; details: 25 µg/mL
Method: as §5, §6

[3] = LTA of S. aureus 100 µg/mL, n = 3

CCCCCCCC1CC(=O)N[C@H](CC(C)C)C(=O)N[C@@H](CO)C(=O)N[C@@H]([C@@H](C)O)C(=O)N[C@H](Cc2ccccc2)C(=O)N[C@@H](CC(C)C)C(=O)O1 (stereo partly shown) [W2-FL10, serrawettin W2-FL10]
increase in the IC50 in the presence of DOPG (S. aureus ATCC 25923; DOPG 100 µg/mL vs control, P < 0.001): twofold
ICF (S. aureus ATCC 25923; Ca2+ and Mg2+ (CA-MHB)): 2.2
IC50 ± SE (S. aureus ATCC 25923; Ca2+ and Mg2+ (CA-MHB), n = 4): 8.4 µg/mL (≈ 11.5 µM)
MIC ± SE (S. aureus ATCC 25923; Ca2+ and Mg2+ (CA-MHB), n = 4): 12.5 ± 0.0 µg/mL (≈ 17.1 µM)
ICF (S. aureus ATCC 25923; Control (MHB)): 4.3
MIC ± SE (S. aureus ATCC 25923; Control (MHB), 24 h 37°C, n = 4): 21.9 ± 3.1 µg/mL (≈ 29.9 µM)
IC50 ± SE (S. aureus ATCC 25923; Control (MHB), n = 4): 10.6 µg/mL (≈ 14.5 µM)
ICF (S. aureus ATCC 25923; DOPG 100 µg/mL): 6.3
IC50 ± SE (S. aureus ATCC 25923; DOPG 100 µg/mL, n = 4): 22.5 µg/mL (≈ 30.7 µM)
MIC ± SE (S. aureus ATCC 25923; DOPG 100 µg/mL, n = 4): 56.3 ± 15.7 µg/mL (≈ 76.9 µM)
ICF (S. aureus ATCC 25923; LTA 100 µg/mL): 6.3
IC50 ± SE (S. aureus ATCC 25923; LTA 100 µg/mL, n = 4): 16.6 µg/mL (≈ 22.7 µM)
MIC ± SE (S. aureus ATCC 25923; [3]): 41.7 ± 8.3 µg/mL (≈ 57 µM)
increase in the IC50 in the presence of LTA (MRSA Xen 30 [1]; LTA 100 µg/mL vs control, P < 0.001): twofold
ICF (MRSA Xen 30 [1]; Ca2+ and Mg2+ (CA-MHB)): 1.7
IC50 ± SE (MRSA Xen 30 [1]; Ca2+ and Mg2+ (CA-MHB), n = 4): 12.2±0.2 (5) 9.5±1.5 (4) 40.6±2.0 (4) 24.6±0.1 (4) µg/mL
MIC ± SE (MRSA Xen 30 [1]; Ca2+ and Mg2+ (CA-MHB), n = 4): 12.5 ± 0.0 µg/mL (≈ 17.1 µM)
ICF (MRSA Xen 30 [1]; Control (MHB)): 3.4
MIC ± SE (MRSA Xen 30 [1]; Control (MHB), 24 h 37°C, n = 5): 22.5 ± 2.5 µg/mL (≈ 30.7 µM)
IC50 ± SE (MRSA Xen 30 [1]; Control (MHB), n = 5): 12.2 µg/mL (≈ 16.7 µM)
ICF (MRSA Xen 30 [1]; DOPG 100 µg/mL): 2.4
IC50 ± SE (MRSA Xen 30 [1]; DOPG 100 µg/mL, n = 4): 40.6 µg/mL (≈ 55.5 µM)
MIC ± SE (MRSA Xen 30 [1]; DOPG 100 µg/mL, n = 4): 62.5 ± 12.5 µg/mL (≈ 85.4 µM)
ICF (MRSA Xen 30 [1]; LTA 100 µg/mL): 4.1
IC50 ± SE (MRSA Xen 30 [1]; LTA 100 µg/mL, n = 4): 24.6 µg/mL (≈ 33.6 µM)
MIC ± SE (MRSA Xen 30 [1]; [3]): 50.0 ± 17.7 µg/mL (≈ 68.3 µM)
time within which ≥90% uptake in PI fluorescence was observed (S. aureus RN4220): ≤ 2,760 s
time within which ≥90% uptake in PI fluorescence was observed (MRSA Xen 30 [2]): ≤ 3,240 s
